Values after ≈ are worked out from the molar mass of the structure shown. Like-named read-outs stand apart in the source and are kept apart here.
Experiments:
[1] = test system: tumor patients with RET fusion and mutation; settings: cited from earlier work
[2] = Pharmacokinetics in rats after a single dose by gavage; settings: for in vivo exposure levels: rat pharmacokinetic data, compared with free base crystal form I; for AUC0-last / AUCINF / Cmax / T1/2 / Tmax: SD rats, single gavage dose 10mpk, 1mg/ml in 0.5% MC+1% tween 80 (Uniform suspension), 10 mg/kg
Description: (§1) Blood samples were collected at different time points to determine the drug concentration in the rat plasma after administration of the test substance and relevant pharmacokinetic parameters were calculated.
(§2) The specific preparation method was as follows: 10mg of the test sample was taken, 0.5% MC and 1% Tween 80 was added, the resulting mixture was vortex mixed to obtain a solution with a concentration of 1mg/mL. The solution was freshly prepared before use, mixed well through vortex, and set aside for later use.
(§3) Healthy male SD rats or dogs were used for this study. All animals were fasted before administration and resumed feeding 4 hours after administration.
(§4) About 0.1 mL of blood was collected via the jugular vein from each animal, using EDTA or heparin sodium as anticoagulants. After collected, the blood sample was placed on ice and centrifuged to separate the plasma (centrifugation conditions: 10000 rpm, 5 minutes, and 4 °C).
(§5) The plasma samples were analyzed by LC-MS/MS by the analysis department of the experimental institution.

in vivo [3] = settings: rat, po, 10 mg/kg
Description: as §1, §2, §3, §4, §5

in vivo [4] = settings: dog, po, 5 mg/kg
Description: (§6) Blood samples were collected at different time points to determine the drug concentration in the dog plasma after administration of the test substance and relevant pharmacokinetic parameters were calculated.
as §2, §3
(§7) (Time points ≤ 2 hours: ± 2 min; other points: ± 15 min.)
as §4, §5

[5] = Solid-state stability, 7 days at 60 °C/closed and 40 °C/75% RH (HPLC purity, XRPD); type: physicochemical; settings: for Purity (Area%) 40 °C/ 75%RH / Purity (Area%) 60 °C/ Closed / XRPD 40 °C/ 75%RH / XRPD 60 °C/ Closed: 7 days; for Purity (Area%) 40 °C/ 75%RH / Purity (Area%) 60 °C/ Closed / Initial purity (Area%): HPLC; for Initial purity (Area%): before storage; for XRPD 40 °C/ 75%RH: crystal form after 40 °C/75% RH; for XRPD 60 °C/ Closed: crystal form after 60 °C/closed
Description: HPLC analysis was performed using Agilent HPLC 1260 series instruments. Table 37 HPLC Method for Solubility and Stability Tests

[6] = Pharmacokinetics in dogs after a single dose by gavage; settings: for in vivo exposure levels: dog pharmacokinetic data, compared with free base crystal form I; for AUC0-last / AUCINF / Cmax / T1/2 / Tmax: dogs, single gavage dose 5mpk, 1mg/ml in 0.5%MC+1% tween 80 (Uniform suspension), 5 mg/kg
Description: as §6, §2, §3, §7, §4, §5

[7] = Rough solubility in 17 solvents by visual inspection at room temperature; settings: for solubility: DMSO
physchem [8] = assay: physchem
physchem [9] = assay: physchem; remark: listed apart in the source
[10] = Solubility test in biological media and water at 37 °C (HPLC; XRPD of residue); settings: for Solubility (µg/mL) 2 h / Solubility (µg/mL) 0.5 h / Solubility (µg/mL) 24 h: calculated using free base; for Solubility (µg/mL) 2 h: 120 min; for Solubility (µg/mL) 24 h: 1440 min
[11] = Evaluation of amorphous free base: suspension stirred in solvent at room temperature for 2 days; type: physicochemical; settings: for Result (solid form obtained): suspension stirred at room temperature for 2 days
Description: 100 mg of the amorphous free base sample obtained in the present invention was weighed and a solvent was added to form a suspension. The mixture was stirred at room temperature for 2 days, and the results are as follows: […]

[12] = FaSSIF (pH=6.49), LOQ: ~1.0 µg/mL
[13] = crystal form after 24 h in FaSSIF (pH=6.49)
[14] = crystal form after 24 h in FeSSIF (pH=5.00)
[15] = crystal form after 24 h in SGF (pH=1.19)
[16] = crystal form after 24 h in Water (pH=5.45)

Purity (Area%) 40 °C/ 75%RH [5] [Area%]	Purity (Area%) 60 °C/ Closed [5] [Area%]	Initial purity (Area%) [5] [Area%]	XRPD 40 °C/ 75%RH [5]	XRPD 60 °C/ Closed [5]	AUC0-last [6] [ng·h/mL]	AUCINF [6] [ng·h/mL]	Cmax [6] [ng/mL]	T1/2 [6] [h]	AUC0-last [2] [ng·h/mL]	AUCINF [2] [ng·h/mL]	Cmax [2] [ng/mL]	T1/2 [2] [h]	Tmax [2] [h]	Tmax [6] [h]	Solubility (µg/mL) 2 h [10, 12] [µg/mL]	XRPD (24 h) [10, 13]	XRPD (24 h) [10, 14]	SMILES	in vivo exposure levels [2]	in vivo exposure levels [6]	also measured
97.914	98.119	98.062	Unchanged	Unchanged	3807.0	4179.0	617	6.87	1781.00	1790.00	247.00	2.77	5.00	4.0	5.950	Almost amorphous	Unchanged	CCn1ncc2c(Nc3cc(C)[nH]n3)nc([C@H]3CC[C@](OC)(C(=O)N[C@@H](C)c4cnc(-n5cc(F)cn5)cn4)CC3)nc21 [Fumarate crystal form I]	higher than those of free base crystal form I	higher than those of free base crystal form I	solubility at 24 h (physchem [9]; fassif, pH 6.49): 22.7 µg/mL; solubility at 0.5 h (physchem [9]; fessif, pH 5): 84.2 µg/mL; solubility at 2 h (physchem [9]; fessif, pH 5): 28.5 µg/mL; solubility at 24 h (physchem [9]; fessif, pH 5): 20.9 µg/mL; solubility at 0.5 h (physchem [9]; sgf): 210 µg/mL; solubility at 0.5 h (physchem [9]; sgf, pH 1.19): 210 µg/mL; solubility at 2 h (physchem [9]; sgf, pH 1.19): 204 µg/mL; solubility at 24 h (physchem [9]; sgf, pH 1.19): 78.1 µg/mL; XRPD (24 h) [10, 15]: Unchanged; XRPD (24 h) [10, 16]: Unchanged
98.742	98.753	98.772	Unchanged	Unchanged	–	–	–	–	1209.00	1217.00	177.00	2.31	3.00	–	2.650	Changed	Almost amorphous	CCn1ncc2c(Nc3cc(C)[nH]n3)nc([C@H]3CC[C@](OC)(C(=O)N[C@@H](C)c4cnc(-n5cc(F)cn5)cn4)CC3)nc21 [Malate crystal form I]	higher than those of free base crystal form I	higher than those of free base crystal form I	Solubility (µg/mL) 0.5 h ([10]; FeSSIF (pH=5.00), 30 min): 58.771 µg/mL; Solubility (µg/mL) 2 h ([10]; FeSSIF (pH=5.00)): 19.818 µg/mL; Solubility (µg/mL) 24 h ([10]; FeSSIF (pH=5.00)): 16.658 µg/mL; Solubility (µg/mL) 0.5 h ([10]; SGF (pH=1.19), 30 min): 204.753 µg/mL; Solubility (µg/mL) 2 h ([10]; SGF (pH=1.19)): 113.155 µg/mL; Solubility (µg/mL) 24 h ([10]; SGF (pH=1.19)): 79.977 µg/mL; maximum solubility ([10]; SGF medium at 0.5 hours, 30 min): 200 µg/mL; XRPD (24 h) [10, 15]: Changed; XRPD (24 h) [10, 16]: Unchanged

Second part, the compound before the results:

SMILES	Purity (Area%) 40 °C/ 75%RH [5] [Area%]	Purity (Area%) 60 °C/ Closed [5] [Area%]	Initial purity (Area%) [5] [Area%]	XRPD 40 °C/ 75%RH [5]	XRPD 60 °C/ Closed [5]	AUC0-last [6] [ng·h/mL]	AUCINF [6] [ng·h/mL]	Cmax [6] [ng/mL]	T1/2 [6] [h]	AUC0-last [2] [ng·h/mL]	AUCINF [2] [ng·h/mL]	Cmax [2] [ng/mL]	T1/2 [2] [h]	Tmax [2] [h]	Tmax [6] [h]	Solubility (µg/mL) 2 h [10, 12] [µg/mL]	XRPD (24 h) [10, 13]	XRPD (24 h) [10, 14]	in vivo exposure levels [2]	in vivo exposure levels [6]	also measured
CO[C@]1(C(=O)N[C@@H](C)c2ccc(-n3cc(F)cn3)nc2)CC[C@H](c2nc(C)cc(Nc3cc(C)[nH]n3)n2)CC1 [BLU-667]	–	–	–	–	–	–	–	–	–	–	–	–	–	–	–	–	–	–	–	–	ORR ([1]; patients with medullary thyroid carcinoma): 40%; ORR ([1]; patients with non-small cell lung cancer): 50%; overall remission rate (ORR) ([1]; tumor patients with RET fusion and mutation): 45%
CCn1ncc2c(Nc3cc(C)[nH]n3)nc([C@H]3CC[C@](OC)(C(=O)N[C@@H](C)c4cnc(-n5cc(F)cn5)cn4)CC3)nc21 [Free base crystal form III]	99.253	99.212	99.316	Unchanged	Unchanged	763.5	776.0	151.5	4.275	–	–	–	–	–	–	–	–	–	higher than those of free base crystal form I	higher than those of free base crystal form I	AUC(0-inf) (in vivo [3]): 1260 ng·h/mL; AUC(0-t) (in vivo [3]): 1250 ng·h/mL; Cmax (in vivo [3]): 153 ng/mL; Tmax (in vivo [3]): 6 h; half-life (in vivo [3]): 3.18 h; Tmax (in vivo [4]): 2 h
CCn1ncc2c(Nc3cc(C)[nH]n3)nc([C@H]3CC[C@](OC)(C(=O)N[C@@H](C)c4cnc(-n5cc(F)cn5)cn4)CC3)nc21 [Free base crystal form I]	–	–	–	–	–	673.5	684.0	111.7	2.835	1172.00	1197.00	158.00	2.69	4.67	3.0	–	–	–	–	–	solubility [7]: > 40000 µg/mL; solubility ([7]; listed as free base crystal form I): >166700 µg/mL; Solubility (mg/mL) ([7]; THF): 41.7~50.0 mg/mL; solubility (physchem [8]; 2-me-thf): 11100 to 12500 µg/mL (≈ 18.9 to 21.2 mM); solubility (physchem [8]; acetone): 7100 to 8300 µg/mL (≈ 12.1 to 14.1 mM); solubility (physchem [8]; dcm): 4600 to 5000 µg/mL (≈ 7.81 to 8.49 mM); solubility (physchem [8]; ea): 2200 to 2300 µg/mL (≈ 3.74 to 3.91 mM); solubility (physchem [8]; etoh): < 600 µg/mL; solubility (physchem [8]; hept): < 600 µg/mL; solubility (physchem [8]; ipa): < 600 µg/mL; solubility (physchem [8]; ipac): 1500 to 1600 µg/mL (≈ 2.55 to 2.72 mM); solubility (physchem [8]; mek): 6300 to 7100 µg/mL (≈ 10.7 to 12.1 mM); solubility (physchem [8]; meoh): ~1200 µg/mL (≈ 2.04 mM); solubility (physchem [8]; mtbe): < 600 µg/mL; solubility (physchem [8]; n-buoh): < 600 µg/mL; solubility (physchem [8]; thf): > 40000 µg/mL; solubility (physchem [8]; tol): < 600 µg/mL; solubility (physchem [8]; water): < 600 µg/mL
CCn1ncc2c(Nc3cc(C)[nH]n3)nc([C@H]3CC[C@](OC)(C(=O)N[C@@H](C)c4cnc(-n5cc(F)cn5)cn4)CC3)nc21 [amorphous free base]	–	–	–	–	–	–	–	–	–	–	–	–	–	–	–	–	–	–	–	–	Result (solid form obtained) ([11]; Acetone): Free base crystal form III; Result (solid form obtained) ([11]; Methanol): Free base crystal form I; stability of the solid form in the solvent ([11]; suspension in methanol or acetone, room temperature, 2 days): unstable and easily transformed into other crystal forms

Reference: patent EP4714947A1, “CRYSTAL FORM OF PYRIMIDO AZACYCLO COMPOUND, AND PREPARATION METHOD THEREFOR AND USE THEREOF” (TYK Medicines, Inc., priority 2023, dated 2024)
